From patent US20200055896A1, “SUBSTRATES RECOGNIZED BY FIBROBLAST ACTIVATION PROTEIN (FAP) AND METHODS OF USING THE SAME” (GENENTECH, INC., priority 2017, published 2020)
“Also recorded” adds a separate entry of the source.

Tests used:
[1] = tested on: GP probe cleaving activity in plasma; assay: GP cleavage in mouse plasma in the presence of cpd60 and/or KYP; assay type: biochemical, mice
Method: (§1) Mouse plasma samples were prepared in K3-EDTA MiniCollect tubes (Greiner Bio-One, 450475) and frozen immediately at −80° C. prior to analysis. Human serum samples were obtained from healthy donors or purchased from Discovery Life Sciences, Inc. (Los Osos, Calif.).
(§2) Peptides of the region flanking the C-terminal human FGF21 cleavage site (VGPSQG) or a variant with D-alanine at P2 (VaPSQG) were synthesized (Anaspec, Inc.), containing an amine-terminal donor (HyLite Fluor 488 or Cy5.5 for aP NIRF) and a dark quencher-acceptor (QXL 520 or QSY21 for aP NIRF) conjugated to a supplementary C-terminal lysine. ANPFAP (Bioconjugate Chem 23:1704-11) and aP NIRF were synthesized by CPC Scientific (Sunnyvale, Calif.). Assays were conducted at 37° C. in 50 mM HEPES (pH 7.2), 150 mM NaCl, 1 mM EDTA, 0.1 mg/ml BSA. The excitation/emission wavelengths of cleaved peptide are 490/520 nm or 675/695 nm for ANPFAP and aP NIRF. Fluorescence was monitored on a Tecan M1000 Pro plate reader in kinetic mode. Except where indicated otherwise, measurements of serum or plasma FAP activity were performed with the peptide substrate concentration at 6 μM and a 10-fold dilution of serum or plasma in assay buffer.

[2] = biological target: T1, circulating FAP activity (Mus musculus, UniProt P97321); assay: In vivo pharmacological FAP inhibition: mice fed chow with cpd60, plasma FAP activity by aP peptide; conditions: chow with 100 ppm cpd60 ad libitum, day 4 and 7
T1 construct: the extracellular domain encoding the active enzyme can be shed from the cell surface; from tissue; host or cells: mouse plasma (C57BL/6 background; Fap +/+, +/-, -/-)
T1 sequence (P97321 24-761 limits assumed): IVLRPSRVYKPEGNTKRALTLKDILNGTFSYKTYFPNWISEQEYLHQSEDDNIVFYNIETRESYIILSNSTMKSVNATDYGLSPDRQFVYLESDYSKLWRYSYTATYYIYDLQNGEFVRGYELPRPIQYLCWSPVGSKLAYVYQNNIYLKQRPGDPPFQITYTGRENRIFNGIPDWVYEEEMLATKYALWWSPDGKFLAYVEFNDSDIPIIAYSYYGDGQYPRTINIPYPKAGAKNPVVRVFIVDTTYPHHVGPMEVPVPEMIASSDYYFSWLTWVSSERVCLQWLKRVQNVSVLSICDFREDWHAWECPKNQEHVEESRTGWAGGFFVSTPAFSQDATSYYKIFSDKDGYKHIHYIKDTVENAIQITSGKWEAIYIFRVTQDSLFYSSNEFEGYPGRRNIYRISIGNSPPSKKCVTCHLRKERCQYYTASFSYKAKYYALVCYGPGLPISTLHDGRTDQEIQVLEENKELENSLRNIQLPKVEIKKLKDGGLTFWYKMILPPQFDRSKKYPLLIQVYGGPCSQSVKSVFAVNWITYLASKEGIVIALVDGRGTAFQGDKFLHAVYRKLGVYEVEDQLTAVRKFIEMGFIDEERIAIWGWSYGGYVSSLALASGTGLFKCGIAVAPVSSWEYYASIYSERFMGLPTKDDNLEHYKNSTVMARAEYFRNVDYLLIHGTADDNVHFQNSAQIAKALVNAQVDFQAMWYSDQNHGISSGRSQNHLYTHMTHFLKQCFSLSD
Method: Mice were maintained in a pathogen-free animal facility at 21° C. under standard 12 h light/12 h dark cycle with access to normal chow (Labdiet 5010) and water ad libitum unless otherwise indicated. Generation of Fap KO mice was described previously (Dunshee, et al. (2016) J Biol Chem 291:5986-96).
as §1
as §2, with “Except where indicated otherwise, measurements of serum or plasma FAP activity were performed with the peptide substrate concentration at 6 μM and a 10-fold dilution of serum or plasma in assay buffer.” left out

[3] = tested on: FAP-related activity; conditions: cynomolgus monkeys, cited from earlier work
[4] = biological target: T2, recombinant human PREP (Homo sapiens, UniProt P48147); assay: FRET-quench assay: probe cleavage by recombinant human PREP; assay type: biochemical; conditions: 10 nM enzyme
T2 construct: purchased R&D Systems 4308-SE
T2 sequence (P48147 1-710): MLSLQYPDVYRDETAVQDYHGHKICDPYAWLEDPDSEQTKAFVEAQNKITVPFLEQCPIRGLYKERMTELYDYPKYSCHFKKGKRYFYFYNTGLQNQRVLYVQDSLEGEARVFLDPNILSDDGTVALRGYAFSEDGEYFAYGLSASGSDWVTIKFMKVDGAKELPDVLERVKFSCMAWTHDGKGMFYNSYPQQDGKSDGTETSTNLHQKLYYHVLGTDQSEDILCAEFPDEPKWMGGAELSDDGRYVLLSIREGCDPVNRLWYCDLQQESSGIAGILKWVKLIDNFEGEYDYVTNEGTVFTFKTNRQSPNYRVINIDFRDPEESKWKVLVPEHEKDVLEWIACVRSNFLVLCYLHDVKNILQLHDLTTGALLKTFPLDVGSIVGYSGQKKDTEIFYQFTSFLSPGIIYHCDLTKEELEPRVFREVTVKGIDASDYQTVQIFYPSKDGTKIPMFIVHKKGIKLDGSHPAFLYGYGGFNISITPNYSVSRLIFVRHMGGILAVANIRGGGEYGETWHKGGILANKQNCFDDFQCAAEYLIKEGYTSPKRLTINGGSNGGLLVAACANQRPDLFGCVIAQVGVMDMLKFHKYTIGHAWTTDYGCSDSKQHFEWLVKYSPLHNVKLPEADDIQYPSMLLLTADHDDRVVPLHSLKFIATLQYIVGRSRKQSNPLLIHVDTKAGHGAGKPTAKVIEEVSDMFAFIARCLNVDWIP
From the text: (§3) Human prolyl oligopeptidase (PREP, 4308-SE), DPPIV (1180-SE), DPP9 (5419-SE), and DPPII/DPP7 (3438-SE) proteins were purchased from R&D Systems. Human DPP8 (BML-SE527) protein was purchased from Enzo Life Sciences. N-terminal octa-His-tagged human and mouse FAP proteins containing the extracellular domain (residues L26-D760 and L26-D761, respectively) were purified from the conditioned media of transiently-transfected CHO cells, by immobilized metal affinity chromatography (IMAC), followed by size exclusion chromatography (SEC).
as §2

[5] = biological target: T3, recombinant human FAP (Homo sapiens, UniProt Q12884); assay: FRET-quench assay: probe cleavage by recombinant human FAP; assay type: biochemical; conditions: 10 nM enzyme
T3 construct: (residues L26-D760 and L26-D761, respectively); octa-His (N); made in house; host or cells: transiently transfected CHO cells (conditioned media)
T3 sequence (Q12884 26-760): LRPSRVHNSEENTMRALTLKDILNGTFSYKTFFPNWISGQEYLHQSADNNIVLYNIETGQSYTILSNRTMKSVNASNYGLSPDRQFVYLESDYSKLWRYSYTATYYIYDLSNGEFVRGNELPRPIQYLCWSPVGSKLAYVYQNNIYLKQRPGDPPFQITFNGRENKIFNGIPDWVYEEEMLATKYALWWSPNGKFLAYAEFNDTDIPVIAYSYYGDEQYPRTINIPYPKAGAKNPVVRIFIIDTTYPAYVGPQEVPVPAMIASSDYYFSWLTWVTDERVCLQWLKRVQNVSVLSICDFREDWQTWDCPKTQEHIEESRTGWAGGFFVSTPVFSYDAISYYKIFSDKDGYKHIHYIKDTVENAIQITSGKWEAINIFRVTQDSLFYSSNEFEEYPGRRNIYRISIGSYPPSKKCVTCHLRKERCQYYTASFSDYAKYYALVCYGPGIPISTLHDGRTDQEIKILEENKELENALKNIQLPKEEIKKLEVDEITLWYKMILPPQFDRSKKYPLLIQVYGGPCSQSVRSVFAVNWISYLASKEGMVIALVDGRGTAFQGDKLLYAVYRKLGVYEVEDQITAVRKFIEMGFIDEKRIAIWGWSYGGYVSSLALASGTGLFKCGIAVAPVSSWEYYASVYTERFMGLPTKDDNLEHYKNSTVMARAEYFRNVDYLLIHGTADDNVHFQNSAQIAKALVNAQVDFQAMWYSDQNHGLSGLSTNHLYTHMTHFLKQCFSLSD
From the text: as §3, §2

[6] = biological target: T4, tissue FAP activity (Mus musculus, UniProt P97321); assay: Ex vivo NIRF imaging of pancreata after i.v. probe in KPP and healthy C57BL/6 mice
T4 construct: from tissue
T4 sequence (P97321 1-761): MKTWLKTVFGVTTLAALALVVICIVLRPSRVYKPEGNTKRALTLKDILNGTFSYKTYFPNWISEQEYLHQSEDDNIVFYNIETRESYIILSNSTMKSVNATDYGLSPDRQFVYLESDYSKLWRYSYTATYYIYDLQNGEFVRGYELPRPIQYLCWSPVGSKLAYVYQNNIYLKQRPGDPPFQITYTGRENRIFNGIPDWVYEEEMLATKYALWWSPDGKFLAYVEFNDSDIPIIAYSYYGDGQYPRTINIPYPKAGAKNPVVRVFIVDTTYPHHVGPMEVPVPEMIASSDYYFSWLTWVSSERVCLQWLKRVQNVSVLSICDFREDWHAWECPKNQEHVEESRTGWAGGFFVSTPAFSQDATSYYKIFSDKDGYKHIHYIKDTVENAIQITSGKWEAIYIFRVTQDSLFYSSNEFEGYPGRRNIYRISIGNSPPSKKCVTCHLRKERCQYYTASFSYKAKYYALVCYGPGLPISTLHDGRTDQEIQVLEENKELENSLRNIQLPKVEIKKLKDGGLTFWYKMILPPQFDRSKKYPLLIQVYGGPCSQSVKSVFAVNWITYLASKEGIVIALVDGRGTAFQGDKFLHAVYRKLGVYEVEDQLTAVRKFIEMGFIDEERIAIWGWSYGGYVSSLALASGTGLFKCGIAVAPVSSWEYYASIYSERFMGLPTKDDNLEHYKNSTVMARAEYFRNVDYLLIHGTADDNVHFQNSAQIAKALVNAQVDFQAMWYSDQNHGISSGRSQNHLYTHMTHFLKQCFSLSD
From the text: The utility of the VaPSQG-NIRF probe for imaging of tissue FAP activity was studied in a genetically engineered mouse model of pancreatic cancer, KrasLSL.G12D/wt;p16/p19fl/fl;Pdx1. Cre, or “KPP” for short (Singh, M. et al. Nat. Biotechnol. 28:585-593 (2010); Aguirre, A. J. et al. Genes Dev. 17:3112-26 (2003)). […] The VaPSQG-NIRF probe was synthesized by CPC Scientific (Sunnyvale, Calif.).
Prior to the imaging study, three KPP mice (9.3 weeks old) with varying tumor volumes were selected based on an in vivo ultrasound scan. Additionally, three healthy C57BL/6 mice (8.3 weeks old) were also studied as controls. One nmol VaPSQG-NIRF probe diluted in 150 microL of PBS was intravenously administered to each mouse via tail vein under anesthesia. […] After 4 hours, the mice were euthanized and pancreas tissues were dissected. The dissected tissues were rinsed with PBS, dried with tissue paper, and put on black paper for ex vivo NIRF imaging. Near infrared images are acquired using a CCD camera (Pearl Trilogy, Li-cor).

N#C[C@@H]1CCCN1C(=O)[C@@H]1CCCN1C(=O)CCCc1ccccc1 [KYP-2047]
sensitivity of residual GP probe cleaving activity to the inhibitor ([1]; Fap KO plasma): sensitive

N#C[C@@H]1CC(F)(F)CN1C(=O)CNC(=O)c1ccnc2ccccc12 [cpd60]
suppression of circulating (plasma) FAP activity [2]: completely suppress; also recorded: undetectable levels; also recorded: completely suppressed | sensitivity of GP probe activity to the inhibitor ([1]; WT or heterozygous plasma): clearly sensitive | change in FAP-related activity ([3]; bolus p.o.): transient decrease | clearance from circulation [3]: rapid clearance

aP NIRF: identical to aP, but the FRET donor and quencher replaced with Cy5.5 and QSY21
cleavage by recombinant human PREP [4]: not | cleavage by recombinant human FAP [5]: efficiently cleaves | relative fluorescence intensities normalized to imaging area, KPP versus healthy control pancreata ([6]; 4 hours after 1 nmol i.v., P<0.05): much greater fluorescence | ex vivo imaging fluorescent signal of pancreata ([6]; KPP group, 4 hours after 1 nmol i.v.): strong fluorescent signal | treatment-related adverse effect ([6]; mice, 1 nmol i.v. via tail vein, until euthanasia after 4 hours): No treatment-related adverse effect was observed
